Values quoted from earlier work, collected in patent US20060106003A1, “Combination of a macrolide t-cell immunomodulator and a calciferol for the treatment of skin diseases or of inflammatory bowel disease” (priority 2003, published 2006).

System: allogeneic kidney transplantation
Conditions: rat, oral administration; suppression of systemic immune response

C=CC[C@@H]1/C=C(\C)C[C@H](C)C[C@H](OC)[C@H]2O[C@@](O)(C(=O)C(=O)N3CCCC[C@H]3C(=O)O[C@H](/C(C)=C/[C@@H]3CC[C@@H](O)[C@H](OC)C3)[C@H](C)[C@@H](O)CC1=O)[C@H](C)C[C@@H]2OC [tacrolimus]
minimum effective dose (MED): 14 mg/kg
